Laboratory results taken from PubChem BioAssay (NCI).
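Cells were grown in 96-well plates and exposed to each compound for 48 hours at five concentrations; endpoints were interpolated linearly between bracketing concentrations, or set to the highest concentration if not reached. TGI is the concentration that stops growth completely.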

How the values were obtained:
Experiment in all cases: DTP human tumour cell line panel, 48 h
[1] = system: OVCAR-4 ovarian
[2] = system: UACC-257 melanoma
[3] = system: UACC-62 melanoma
[4] = system: SF-295 CNS
[5] = system: SK-MEL-5 melanoma
[6] = system: LOX IMVI melanoma
[7] = system: SNB-75 CNS
[8] = system: OVCAR-3 ovarian
[9] = system: PC-3 prostate
[10] = system: RXF 393 renal
[11] = system: U251 CNS

| Structure (SMILES) | TGI [1] | TGI [2] | TGI [3] | TGI [4] | TGI [5] | TGI [6] | TGI [7] | TGI [8] | TGI [9] | TGI [10] | TGI [11] |
| --- | --- | --- | --- | --- | --- | --- | --- | --- | --- | --- | --- |
| COC1(C)CC2N(C(=O)c3ccccc3)N=C(c3ccccc3)CC2(C)O1 (centres undefined) | > 100 µM | > 100 µM | > 100 µM | > 100 µM | > 100 µM | > 100 µM | > 100 µM | > 100 µM | – | – | – |
| Cc1cn(C2CC(N)C(CN)O2)c(=O)[nH]c1=O (centres undefined) | > 100 µM | > 100 µM | > 100 µM | > 100 µM | > 100 µM | – | > 100 µM | > 100 µM | > 100 µM | > 100 µM | > 100 µM |
| COC(=O)C(C#N)=C1c2ccccc2Oc2ccccc21 | > 100 µM | > 100 µM | > 100 µM | > 100 µM | > 100 µM | > 100 µM | > 100 µM | 73.1 µM | – | > 100 µM | – |
| Cc1cc2c(c(C(=O)NCCC(=O)O)c1)Oc1c(cc(C)cc1C(=O)NCCC(=O)O)S2 | > 100 µM | > 100 µM | > 100 µM | > 100 µM | – | > 100 µM | > 100 µM | > 100 µM | > 100 µM | > 100 µM | > 100 µM |
| CC1C(c2cc(C(C)(C)C)c(O)c(C(C)(C)C)c2)c2cc3c(cc2OC1N1CCOCC1)OCO3 (centres undefined) | – | > 100 µM | 72.9 µM | 32.1 µM | 47.3 µM | 44.7 µM | – | 35 µM | 31.6 µM | – | – |
| O=C1NC(c2ccc(O)cc2)C2CCC1C2 (centres undefined) | > 100 µM | > 100 µM | > 100 µM | > 100 µM | > 100 µM | – | > 100 µM | > 100 µM | – | – | > 100 µM |
| O=c1c2c3ccccc3[nH]c2c2cccc3c2n1CCC3 | – | > 100 µM | > 100 µM | > 100 µM | 79.2 µM | – | > 100 µM | > 100 µM | > 100 µM | > 100 µM | > 100 µM |
| Cc1ccccc1C(C#N)C(=O)C(=O)Nc1nc([N+](=O)[O-])cs1 (centres undefined) | > 100 µM | > 100 µM | > 100 µM | – | > 100 µM | > 100 µM | > 100 µM | > 100 µM | – | > 100 µM | > 100 µM |
| CCOC(=O)c1c(NC(=O)c2ccccc2)sc2c1CCCC2 | – | > 100 µM | > 100 µM | > 100 µM | > 100 µM | > 100 µM | > 100 µM | > 100 µM | > 100 µM | > 100 µM | > 100 µM |
| Oc1ccccc1C(c1cc2c(cc1O)OCO2)N1CCOCC1 (centres undefined) | – | 36.1 µM | 32.3 µM | 41.6 µM | 31.7 µM | 43.4 µM | 32 µM | 31.6 µM | 31.6 µM | 30.8 µM | 30.2 µM |
| O=C1CCCN(c2ccccc2)N1 | > 100 µM | > 100 µM | > 100 µM | > 100 µM | > 100 µM | > 100 µM | > 100 µM | > 100 µM | – | > 100 µM | > 100 µM |
| N#Cc1c(N)[nH]c(=S)c(C#N)c1-c1cccc(Cl)c1 | > 100 µM | > 100 µM | > 100 µM | > 100 µM | > 100 µM | > 100 µM | – | > 100 µM | 60.1 µM | 46.6 µM | > 100 µM |
| O=C(/C(=C(/Br)I)c1ccccc1)c1ccccc1 | – | 43.8 µM | 34.4 µM | 69.6 µM | 41.8 µM | 32.3 µM | 71 µM | 42 µM | > 100 µM | 31.6 µM | 53.1 µM |
| Cc1c(S(=O)(=O)c2ccccc2)c(N)n(Cc2ccccc2)c1C | > 100 µM | > 100 µM | > 100 µM | > 100 µM | > 100 µM | – | > 100 µM | > 100 µM | > 100 µM | > 100 µM | > 100 µM |
| [N-]=[N+]=Nc1c(Cl)c(=O)n(-c2ccccc2)c2ccccc12 | 34.7 µM | 47.1 µM | 29.4 µM | > 100 µM | 18.5 µM | 29.5 µM | 50.8 µM | 39 µM | 70 µM | 30.1 µM | – |
| CCOP(=O)(OCC)[C@H](O)c1ccsc1 | > 100 µM | > 100 µM | > 100 µM | > 100 µM | > 100 µM | > 100 µM | > 100 µM | – | > 100 µM | > 100 µM | > 100 µM |
| COc1cc2c(cc1OCCCCCOc1cc3c(cc1OC)C(=O)N1CCC[C@H]1C(=O)N3)N=C[C@@H]1CCCN1C2=O | 0.716 µM | 0.707 µM | 0.193 µM | 5.59 µM | – | 0.997 µM | 0.0588 µM | 0.575 µM | – | 0.413 µM | 0.51 µM |
| Cc1ccccc1C1OC1C(=O)c1ccccc1N (centres undefined) | > 100 µM | > 100 µM | > 100 µM | – | > 100 µM | > 100 µM | – | – | > 100 µM | > 100 µM | > 100 µM |
| COC(=O)c1cc(CC(C)C)c2c(c1)[nH]c1ccccc12 | > 100 µM | – | > 100 µM | > 100 µM | > 100 µM | > 100 µM | > 100 µM | > 100 µM | – | – | > 100 µM |
| CCOC(=O)C1=C(C)N(c2ccccc2)C2=C(C(=O)N(c3ccccc3)C2c2ccccc2)C1c1ccccc1 (centres undefined) | > 100 µM | > 100 µM | > 100 µM | > 100 µM | > 100 µM | > 100 µM | > 100 µM | > 100 µM | – | > 100 µM | > 100 µM |
| Cc1ccc2c(c1C)CC1(Cc3c(ccc4c3CCC4)C1=O)C2=O (centres undefined) | > 100 µM | > 100 µM | > 100 µM | > 100 µM | > 100 µM | – | > 100 µM | > 100 µM | > 100 µM | > 100 µM | > 100 µM |
| c1ccc(C[P+]2(c3ccccc3)c3ccccc3-c3ccccc32)cc1 | – | > 100 µM | > 100 µM | > 100 µM | > 100 µM | > 100 µM | > 100 µM | > 100 µM | > 100 µM | > 100 µM | – |
| CO[C@@H](C(=O)OC1C=CC2(CC1)C(=O)N(C)c1ccccc12)c1ccccc1 (some centres undefined) | > 100 µM | > 100 µM | > 100 µM | > 100 µM | > 100 µM | > 100 µM | > 100 µM | > 100 µM | > 100 µM | – | > 100 µM |
